This note sets out measurements from patent publication US10077261B2, “Imidazolin-5-one derivative useful as FASN inhibitors for the treatment of cancer” (Janssen Pharmaceutica NV, priority 2012, dated 2018).

Assay [1] concerns the target T1, hFASN enzyme (full length) (Homo sapiens, UniProt P49327).
T1 construct: 10 μL hFASN enzyme (full length, 300 ng, purified in house); made in house
Put plainly: Fatty Acid Synthase (FASN) inhibition scintillation proximity assay. It is filed as biochemical. Particulars: for inhibition at 10 µM: read-out: Human FASN % inhibition @ 10 μM, 10 μM test compound; for IC50: read-out: Human FASN pIC50 (converted). In a few lines:
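Full-length in-house purified enzyme (300 ng) was tested in 100 mM KH2PO4 pH 7.5, 1 mM DTT with ³H-acetyl-CoA and malonyl-CoA as substrates; compounds ranged 0.01–30 μM. Reactions were stopped with streptavidin imaging beads, read by LEADseeker at 610 nm, and fitted to a 4-parameter logistic curve.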
A general note: In a scintillation proximity assay essentially only radioactivity close to the scintillant gives light.

The subject of assay [2] is A2780 ovarian cells. Description: A2780 ovarian cell proliferation assay in lipid reduced medium, with palmitate (MTT). It is filed as cell-based. The conditions noted are these: Homo sapiens, A2780, 96 h; read-out: pIC50 A2780 Ovarian Cell, With Palmitate (converted). The essentials:
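Seeded cells were switched next day to lipid-reduced serum, exposed to compound and 25 μM palmitate complexed with fatty-acid-free BSA, and incubated 96 h. Proliferation was then determined by MTT absorbance at 544 nm, with a best-fit curve of signal against concentration.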

In assay [3] the test system is A2780 ovarian cells. Description: A2780 ovarian cell proliferation assay in lipid reduced medium, without palmitate (MTT). It is filed as cell-based. Particulars: Homo sapiens, A2780, 96 h; read-out: pIC50 A2780 Ovarian Cell, Without Palmitate (converted).
For assay [4], the system named is LNCaP-Vancouver prostate cells. Description: In vitro LNCaP Vancouver prostate cell proliferation assay in lipid reduced medium. It is filed as cell-based. The conditions noted are these: read-out: pIC50 LNCaP_Vancouver prostate cell (converted).
In assay [5] the test system is PC-3M-Luc-C6 prostate cells. Put plainly: In vitro PC-3M-Luc-C6 prostate cell proliferation assay in lipid reduced medium. It is filed as cell-based. Particulars: 96 h, read-out: pIC50 PC-3M-Luc-C6 prostate cell (converted).
For assay [6], the target named is Fatty Acid Synthase Keto-reductase Domain (FASN KR) (Homo sapiens, UniProt P49327). Put plainly: Fatty Acid Synthase keto-reductase domain (FASN KR) inhibition, NADPH oxidation at 340 nm.
Experimental: After 20 minutes incubation at room temperature the plate was measured again (T2).
The decrease in absorbance was calculated as (Absorbance before incubation T1)−(Absorbance following incubation T2).
A plot of Controlmin versus test compound concentration was fitted to a 4-parameter logistic curve using a non-linear least squares regression method.

Where only a bound is given, the exact number is not on record here.

T1 sequence (P49327 whole entry): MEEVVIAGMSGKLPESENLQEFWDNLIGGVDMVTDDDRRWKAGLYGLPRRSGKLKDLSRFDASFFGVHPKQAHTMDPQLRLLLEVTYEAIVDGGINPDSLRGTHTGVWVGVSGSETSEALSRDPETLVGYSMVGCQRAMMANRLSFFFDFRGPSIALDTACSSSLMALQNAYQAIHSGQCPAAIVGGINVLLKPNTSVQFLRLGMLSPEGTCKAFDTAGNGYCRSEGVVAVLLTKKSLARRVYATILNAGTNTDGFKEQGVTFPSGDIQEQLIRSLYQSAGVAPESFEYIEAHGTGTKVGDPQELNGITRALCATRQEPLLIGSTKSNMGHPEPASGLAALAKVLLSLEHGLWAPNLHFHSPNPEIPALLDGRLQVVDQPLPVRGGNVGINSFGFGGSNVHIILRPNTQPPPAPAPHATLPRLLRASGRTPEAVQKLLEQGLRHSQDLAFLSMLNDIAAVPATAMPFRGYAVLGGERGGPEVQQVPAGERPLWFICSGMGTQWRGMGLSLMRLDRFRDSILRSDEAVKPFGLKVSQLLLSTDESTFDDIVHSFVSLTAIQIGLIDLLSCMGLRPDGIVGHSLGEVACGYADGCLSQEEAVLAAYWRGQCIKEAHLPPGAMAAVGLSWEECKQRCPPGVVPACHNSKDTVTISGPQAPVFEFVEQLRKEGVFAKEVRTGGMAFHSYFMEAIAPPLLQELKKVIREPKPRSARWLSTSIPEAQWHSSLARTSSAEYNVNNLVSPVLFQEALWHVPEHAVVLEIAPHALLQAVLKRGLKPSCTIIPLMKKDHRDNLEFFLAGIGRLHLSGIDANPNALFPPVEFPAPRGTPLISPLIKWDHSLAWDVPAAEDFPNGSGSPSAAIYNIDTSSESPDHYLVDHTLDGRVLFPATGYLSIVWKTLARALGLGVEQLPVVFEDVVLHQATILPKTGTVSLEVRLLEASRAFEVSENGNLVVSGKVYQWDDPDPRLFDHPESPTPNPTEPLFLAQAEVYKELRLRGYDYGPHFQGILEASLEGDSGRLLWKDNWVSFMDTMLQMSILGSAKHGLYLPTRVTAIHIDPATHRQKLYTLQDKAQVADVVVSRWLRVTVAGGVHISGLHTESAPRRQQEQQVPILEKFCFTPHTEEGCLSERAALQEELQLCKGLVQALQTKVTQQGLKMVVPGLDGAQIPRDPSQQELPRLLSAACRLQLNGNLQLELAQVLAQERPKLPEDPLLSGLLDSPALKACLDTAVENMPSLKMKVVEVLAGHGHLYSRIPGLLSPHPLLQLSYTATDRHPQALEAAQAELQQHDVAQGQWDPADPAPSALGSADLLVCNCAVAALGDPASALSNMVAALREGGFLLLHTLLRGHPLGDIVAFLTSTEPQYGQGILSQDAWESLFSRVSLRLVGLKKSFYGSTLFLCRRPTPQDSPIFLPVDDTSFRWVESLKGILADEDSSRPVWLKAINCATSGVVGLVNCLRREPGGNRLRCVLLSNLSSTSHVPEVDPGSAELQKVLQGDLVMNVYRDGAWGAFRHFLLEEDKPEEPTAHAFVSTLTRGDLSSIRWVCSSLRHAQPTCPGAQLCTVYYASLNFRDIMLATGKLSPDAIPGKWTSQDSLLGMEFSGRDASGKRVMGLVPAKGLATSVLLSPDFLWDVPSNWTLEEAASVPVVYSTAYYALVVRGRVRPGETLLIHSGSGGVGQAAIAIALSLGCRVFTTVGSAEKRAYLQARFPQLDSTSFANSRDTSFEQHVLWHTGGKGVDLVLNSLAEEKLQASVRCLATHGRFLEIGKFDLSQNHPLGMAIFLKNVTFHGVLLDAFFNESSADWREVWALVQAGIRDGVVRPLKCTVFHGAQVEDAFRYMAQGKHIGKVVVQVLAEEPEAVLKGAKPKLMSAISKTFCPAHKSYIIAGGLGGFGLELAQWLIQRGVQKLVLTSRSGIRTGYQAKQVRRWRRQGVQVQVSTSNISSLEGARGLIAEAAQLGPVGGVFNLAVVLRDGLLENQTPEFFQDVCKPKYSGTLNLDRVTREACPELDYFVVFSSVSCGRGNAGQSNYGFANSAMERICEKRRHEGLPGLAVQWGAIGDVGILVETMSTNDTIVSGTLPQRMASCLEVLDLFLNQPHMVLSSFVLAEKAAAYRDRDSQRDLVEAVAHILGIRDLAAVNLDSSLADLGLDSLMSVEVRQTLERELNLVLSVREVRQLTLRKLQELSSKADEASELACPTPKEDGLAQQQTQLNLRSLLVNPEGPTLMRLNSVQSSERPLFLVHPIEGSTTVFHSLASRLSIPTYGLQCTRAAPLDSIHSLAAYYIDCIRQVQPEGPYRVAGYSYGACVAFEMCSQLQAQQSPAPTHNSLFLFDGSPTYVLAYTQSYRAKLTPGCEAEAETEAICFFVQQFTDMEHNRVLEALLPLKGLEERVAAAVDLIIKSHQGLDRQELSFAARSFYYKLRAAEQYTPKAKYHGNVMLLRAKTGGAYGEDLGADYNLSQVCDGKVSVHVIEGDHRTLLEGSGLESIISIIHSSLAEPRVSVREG
Fatty Acid Synthase Keto-reductase Domain (FASN KR), sequence (P49327 whole entry, the tested form may be a part): as the sequence (P49327 whole entry) above

By inhibition is commonly meant the drop in the measured response relative to a control, in per cent. On to `O=C(C1CC1)N1CC[C@@H](CN2C(=O)C3(CCOCC3)N=C2c2ccc(-c3ccc4cccnc4c3)cc2)C1` [compound 661, 3-{[(3R)-1-(Cyclopropylcarbonyl)pyrrolidin-3-yl]methyl}-2-(4-quinolin-7-ylphenyl)-8-oxa-1,3-diazaspiro[4.5]dec-1-en-4-one], for which the inhibition at 10 µM in assay [1] was found to be 95%. The IC50 is 58.9 nM in assay [1]; over 10 µM in the assay on A2780 ovarian cells [2]; 42.7 nM in the assay on A2780 ovarian cells [3]; 0.191 µM in assay [4]; about 79.4 nM in assay [5]; 132 nM in assay [6].

Turning to `CC(O)C(=O)N1CC[C@@H](CN2C(=O)C3(CCOCC3)N=C2c2ccc(-c3ccc4cccnc4c3)cc2)C1` (stereo partly drawn) [compound 662, 3-{[(3R)-1-(2-Hydroxypropanoyl)pyrrolidin-3-yl]methyl}-2-(4-quinolin-7-ylphenyl)-8-oxa-1,3-diazaspiro[4.5]dec-1-en-4-one], the inhibition at 10 µM in assay [1] worked out at 98%. In addition, the IC50 was 302 nM in assay [1]; over 10 µM in the assay with A2780 ovarian cells [2]; 457 nM in the assay with A2780 ovarian cells [3]; 2.88 µM in assay [4]; 708 nM in assay [5]; 617 nM in assay [6].

On to `O=C(N1CCCC1)N1CC[C@@H](CN2C(=O)C3(CCOCC3)N=C2c2ccc(-c3ccc4cccnc4c3)cc2)C1` [compound 665, 3-{[(3S)-1-(Pyrrolidin-1-ylcarbonyl)pyrrolidin-3-yl]methyl}-2-(4-quinolin-7-ylphenyl)-8-oxa-1,3-diazaspiro[4.5]dec-1-en-4-one], for which the inhibition at 10 µM in assay [1] was 94%. The IC50 in assay [1] is 324 nM; with A2780 ovarian cells [2], over 10 µM; with A2780 ovarian cells [3], 550 nM; in assay [4], 1.23 µM; in assay [5] it was 794 nM; in assay [6], 631 nM.

On to `Cn1cc(-c2ccc(-c3ccc(C4=NC5(CCOC5)C(=O)N4C[C@@H]4CCN(C(=O)[C@H]5CCCO5)C4)cc3)cc2)cn1` (stereo partly drawn) [compound 678, 2-[4′-(1-Methyl-1H-pyrazol-4-yl)biphenyl-4-yl]-3-({(3R)-1-[(2R)-tetrahydro-furan-2-ylcarbonyl]pyrrolidin-3-yl}methyl)-7-oxa-1,3-diazaspiro[4.4]non-1-en-4-one], for which the inhibition at 10 µM in assay [1] was 95%. Further, the IC50 was 372 nM in assay [1]; over 10 µM in the assay on A2780 ovarian cells [2]; 676 nM in the assay on A2780 ovarian cells [3]; 3.31 µM in assay [4]; 891 nM in assay [5]; 832 nM in assay [6].

In the case of `CC(O)C(=O)N1CC[C@@H](CN2C(=O)C3(CCOC3)N=C2c2ccc(-c3ccc4cccnc4c3)cc2)C1` (stereo partly drawn) [compound 681, 3-{[(3R)-1-(2-Hydroxypropanoyl)pyrrolidin-3-yl]methyl}-2-(4-quinolin-7-ylphenyl)-7-oxa-1,3-diazaspiro[4.4]non-1-en-4-one], the inhibition at 10 µM in assay [1] worked out at 91%. Besides, the IC50 in assay [1] was 295 nM; in the assay with A2780 ovarian cells [2], over 10 µM; in the assay on A2780 ovarian cells [3], 794 nM; in assay [4], 4.9 µM; in assay [5] it was 1380 nM; in assay [6], 1380 nM.

As to `O=C([C@H]1CCCO1)N1CC[C@@H](CN2C(=O)C3(CCOC3)N=C2c2ccc(-c3ccc4cccnc4c3)cc2)C1` (stereo partly drawn) [compound 682, 2-(4-Quinolin-7-ylphenyl)-3-({(3R)-1-[(2R)-tetrahydro-furan-2-ylcarbonyl]pyrrolidin-3-yl}methyl)-7-oxa-1,3-diazaspiro[4.4]non-1-en-4-one], the inhibition at 10 µM in assay [1] worked out at 96%. For the same molecule, the IC50 in assay [1] was 115 nM; with A2780 ovarian cells [2], over 10 µM; in the assay on A2780 ovarian cells [3], 117 nM; in assay [4], 1 µM; in assay [5] it was 219 nM; in assay [6], 182 nM.

In the case of `O=C(N1CCCC1)N1CC[C@@H](CN2C(=O)C3(CCOC3)N=C2c2ccc(-c3ccc4cccnc4c3)cc2)C1` (stereo partly drawn) [compound 685, 3-{[(3S)-1-(Pyrrolidin-1-ylcarbonyl)pyrrolidin-3-yl]methyl}-2-(4-quinolin-7-ylphenyl)-7-oxa-1,3-diazaspiro[4.4]non-1-en-4-one], in assay [1], the inhibition at 10 µM was 84%. Also, the IC50 in assay [1] was 851 nM; with A2780 ovarian cells [2] it was over 10 µM; with A2780 ovarian cells [3], 1230 nM; in assay [4], 3.02 µM; in assay [5], 1170 nM; in assay [6] it was 1620 nM.

On to `O=C(C1CC1)N1CC(CN2C(=O)C3(CCOCC3)N=C2c2ccc(-c3ccc4cccnc4c3)cc2)C1` [compound 698, 3-{[1-(Cyclopropylcarbonyl)azetidin-3-yl]methyl}-2-(4-quinolin-7-ylphenyl)-8-oxa-1,3-diazaspiro[4.5]dec-1-en-4-one], for which the inhibition at 10 µM in assay [1] worked out at 92%. The IC50 was 251 nM in assay [1]; over 10 µM in the assay with A2780 ovarian cells [2]; 380 nM with A2780 ovarian cells [3]; 2.63 µM in assay [4]; 575 nM in assay [5]; 457 nM in assay [6].

On to `O=C([C@H]1CCCO1)N1CC(CN2C(=O)C3(CCOCC3)N=C2c2ccc(-c3ccc4cccnc4c3)cc2)C1` [compound 700, 2-(4-Quinolin-7-ylphenyl)-3-({1-[(2R)-tetrahydro-furan-2-ylcarbonyl]azetidin-3-yl}methyl)-8-oxa-1,3-diazaspiro[4.5]dec-1-en-4-one], for which the inhibition at 10 µM in assay [1] turned out to be 94%. Moreover, the IC50 was 240 nM in assay [1]; over 10 µM in the assay on A2780 ovarian cells [2]; 468 nM in the assay on A2780 ovarian cells [3]; 3.39 µM in assay [4]; 1000 nM in assay [5]; 832 nM in assay [6].

Regarding `O=C(N1CCCC1)N1CC(CN2C(=O)C3(CCOCC3)N=C2c2ccc(-c3ccc4cccnc4c3)cc2)C1` [compound 701, 3-{[1-(Pyrrolidin-1-ylcarbonyl)azetidin-3-yl]methyl}-2-(4-quinolin-7-ylphenyl)-8-oxa-1,3-diazaspiro[4.5]dec-1-en-4-one], in assay [1], the inhibition at 10 µM is 95%. Further, the IC50 in assay [1] was 479 nM; in the assay on A2780 ovarian cells [2], over 10 µM; in the assay on A2780 ovarian cells [3], 891 nM; in assay [4] it was 4.57 µM; in assay [5] it was 1260 nM; in assay [6] it was 3890 nM.

`O=C(C1CC1)N1CC(CN2C(=O)C3(CCOC3)N=C2c2ccc(-c3ccc4cccnc4c3)cc2)C1` (stereo not drawn) [compound 714, 3-{[1-(Cycloprppylcarbonyl)azetidin-3-yl]methyl}-2-(4-quinolin-7-ylphenyl)-7-oxa-1,3-diazaspiro[4.4]non-1-en-4-one]: the inhibition at 10 µM in assay [1] worked out at 89%. The IC50 in assay [1] was 363 nM; in the assay on A2780 ovarian cells [2] it was over 10 µM; in the assay with A2780 ovarian cells [3], 933 nM; in assay [4], 5.25 µM; in assay [5], 794 nM; in assay [6] it was 1510 nM.

In the case of `O=C(N1CCCC1)N1CC(CN2C(=O)C3(CCOC3)N=C2c2ccc(-c3ccc4cccnc4c3)cc2)C1` (stereo not drawn) [compound 717, 3-{[1-(Pyrrolidin-1-ylcarbonyl)azetidin-3-yl]methyl}-2-(4-quinolin-7-ylphenyl)-7-oxa-1,3-diazaspiro[4.4]non-1-en-4-one], the inhibition at 10 µM in assay [1] was determined as 87%. Besides, the IC50 was 676 nM in assay [1]; over 10 µM in the assay on A2780 ovarian cells [2]; 1620 nM in the assay on A2780 ovarian cells [3]; 5.01 µM in assay [4]; 1700 nM in assay [5]; 2000 nM in assay [6].

Regarding `COC(=O)N1CC2(C1)N=C(c1ccc(-c3ccc4cccnc4c3)cc1)N(C[C@@H]1CCN(C(=O)C(C)O)C1)C2=O` (stereo partly drawn) [compound 729, Methyl 7-{[(3R)-1-(2-hydroxypropanoyl)pyrrolidin-3-yl]methyl}-8-oxo-6-(4-quinolin-7-ylphenyl)-2,5,7-triazaspiro[3.4]oct-5-ene-2-carboxylate], the inhibition at 10 µM in assay [1] was 95%. In addition, the IC50 is 309 nM in assay [1]; over 10 µM with A2780 ovarian cells [2]; 1290 nM with A2780 ovarian cells [3]; 8.71 µM in assay [4]; 1450 nM in assay [5]; 813 nM in assay [6].

On to `C=CC(=O)N1CCC2(CC1)N=C(c1ccc(-c3ccc4ccoc4c3)cc1)N(C[C@@H]1CCN(C(=O)C3CC3)C1)C2=O` [compound 741, 8-Acryloyl-2-[4-(1-benzofuran-6-yl)phenyl]-3-{[(3R)-1-(cyclopropylcarbonyl)pyrrolidin-3-yl]methyl}-1,3,8-triazaspiro[4.5]dec-1-en-4-one], for which the inhibition at 10 µM in assay [1] is 102%. The IC50 in assay [1] is 158 nM; in the assay with A2780 ovarian cells [2], over 10 µM; with A2780 ovarian cells [3], about 2510 nM; in assay [4] it was 2.75 µM; in assay [5] it was about 1620 nM; in assay [6] it was 537 nM.

Turning to `Cc1sc2ccc(-c3ccc(C4=NC5(CCN(CCO)CC5)C(=O)N4C[C@@H]4CCN(C(=O)C5CC5)C4)cc3)cc2c1C` [compound 742, 3-{[(3R)-1-(Cyclopropylcarbonyl)pyrrolidin-3-yl]methyl}-2-[4-(2,3-dimethyl-1-benzothiophen-5-yl)phenyl]-8-(2-hydroxyethyl)-1,3,8-triazaspiro[4.5]dec-1-en-4-one], the inhibition at 10 µM in assay [1] is 99%. Besides, the IC50 is 191 nM in assay [1]; about 6.03 µM in the assay with A2780 ovarian cells [2]; about 2510 nM in the assay on A2780 ovarian cells [3]; about 4.47 µM in assay [4]; about 1740 nM in assay [5]; 355 nM in assay [6].
